# Data: patent EP0089143A1, “Diagnosis of kidney function” (AMERSHAM INTERNATIONAL plc, priority 1982, dated 1983)
# Tests used:
# [1] = removal from the blood in a single pass through the kidney; cited from earlier work
# [2] = Biodistribution and renal clearance after injection into rats (bladder activity over time, dissection at 2 hr); type: in vivo; conditions: for % in bladder of that at 2 hrs.: group value (4-8 animals)
# Experimental: Solutions of complexes ^*1 and ^*2 from Example 1 were injected into rats and the biodistribution pattern noted. The results of these experiments in rats are summarised in Table 1 below, comparing the data on ^*1 and ^*2 with earlier data on TDG-Tc-99m, Hippuran -1-131 and DTPA-Tc-99m under identical conditions. In all cases, data from animal experiments was used only when the renal performance appeared "normal", i.e. no unilateral or bilateral renal retention. Data was also rejected in cases of significant retention of activity at the injection site.
# The solution was filtered through a 0.22 micron membrane filter prior to administration to rats.
# The solution was filtered through a 0.22 micron membrane filter prior to adminstration to rats.
# A sealed nitrogen filled vial, containing the freeze dried formulation of 20mg TDG, 0.15 mg SnF2, 1 mg NaF and 0.5 mg sodium nitrate was treated with 2 ml of eluate from a technetium generator (6mCi/ml). The vial was allowed to stand at ambient temperature for 10 minutes, then heated in a boiling water bath for 15 minutes.
# [3] = dissection at 2 hr, group value
smiles,measurement,setting,value
"O=C(O)CNC(=O)c1ccccc1[131I] [Hippuran-I-131, sodium iodo- hippurate, reference compound]",removed in a single pass,[1],About 80%
same,hepatobiliary excretion,[2],some hepatobiliary excretion
same,Dissection at 2 hr; % of injected dose: Bladder,[2]; [3],93.0 % of injected dose
same,Dissection at 2 hr; % of injected dose: Kidneys,[2]; [3],0.2 % of injected dose
same,Dissection at 2 hr; % of injected dose: Liver,[2]; [3],0.2 % of injected dose
same,% in bladder of that at 2 hrs.,[2]; time 5 min,33.4%
same,% in bladder of that at 2 hrs.,[2]; time 10 min,53.8%
same,% in bladder of that at 2 hrs.,[2]; time 15 min,63.9%
same,% in bladder of that at 2 hrs.,[2]; time 20 min,72.4%
same,% in bladder of that at 2 hrs.,[2]; time 25 min,80.5%
same,% in bladder of that at 2 hrs.,[2]; time 30 min,85.0%
same,% in bladder of that at 2 hrs.,[2]; time 60 min,93.0%
